Experimental findings from ChEMBL document CHEMBL3045512, “Synthesis of some novel triazoloquinazolines and triazinoquinazolines and their evaluation for anti-inflammatory activity” (Med Chem Res, 2012) are described below.

SMILES strings stand for the structures.

Series [1] concerns Mus musculus. Kind of series: Toxicity in Mus musculus albino (mouse) assessed as tremor inhind limbs at 80 to 375 mg/kg, ip. The format is organism-based, Limb. Particulars: in vivo. Further details: dose 80-375 mg/kg, route intraperitoneal.
For series [2], the system named is Mus musculus. Kind of series: Toxicity in Mus musculus albino (mouse) assessed as serum ALP level at 300 mg/kg, po for 10 days (reference value: 31.63 +/- 3.73 U/l). It is filed as organism-based. The arrangement: dose 300 mg/kg, route oral. Particulars: in vivo, 240 h.
Series [3] relates to Mus musculus. Kind of series: Toxicity in Mus musculus albino (mouse) assessed as bluish skin at 80 to 375 mg/kg, ip. The arrangement: dose 80-375 mg/kg, route intraperitoneal. The format is organism-based. Conditions: in vivo.
The subject of series [4] is Mus musculus. Description: Toxicity in ip dosed Mus musculus albino (mouse) assessed as mortality measured per gram body weight. Conditions: in vivo. It is filed as organism-based.
The subject of series [5] is Mus musculus. Description: Toxicity in Mus musculus albino (mouse) assessed as increase in heart rate at 80 to 375 mg/kg, ip. The format is organism-based. The arrangement: dose 80-375 mg/kg, route intraperitoneal. Conditions: in vivo.
For series [6], the system named is Mus musculus. Description: Toxicity in Mus musculus albino (mouse) assessed as serum gamma-glutamyl transferase level at 300 mg/kg, po for 10 days (reference value: 4.43 +/- 0.31 U/l). The format is organism-based. Further details: dose 300 mg/kg, route oral. Conditions: in vivo, 240 h.
Series [7] has as its system Mus musculus. Kind of series: Toxicity in Mus musculus albino (mouse) assessed as serum LDH level at 300 mg/kg, po for 10 days (reference value: 217.84 +/- 13.36 U/l). It is filed as organism-based. Conditions: in vivo, 240 h. The arrangement: dose 300 mg/kg, route oral.
In series [8] the test system is Mus musculus. Kind of series: Toxicity in Mus musculus albino (mouse) assessed as GPx activity per gram of Hb at 300 mg/kg, po for 10 days (Rvb =179.16 +/- 10.45 U/g Hb). It is filed as organism-based. The arrangement: dose 300 mg/kg, route oral. Particulars: in vivo, 240 h.
Series [9] deals with Mus musculus. Description: Toxicity in Mus musculus albino (mouse) assessed as rapid respiration at 80 to 375 mg/kg, ip. The format is organism-based. Further details: dose 80-375 mg/kg, route intraperitoneal. Particulars: in vivo.
For series [10], the system named is Mus musculus. Description: Anti-inflammatory activity in Mus musculus albino (mouse) assessed as inhibition of formalin-induced paw swelling at 30 mg/kg, po administered 30 min prior formalin challenge measured after 120 min post challenge (reference value: 9.83 +/- 0.071 mm/min). It is filed as functional.
For series [11], the system named is Mus musculus. Kind of series: Toxicity in Mus musculus albino (mouse) assessed as serum SGPT level at 300 mg/kg, po for 10 days (reference value: 35.82 +/- 5.26 U/l). The format is organism-based. Further details: dose 300 mg/kg, route oral. Conditions: in vivo, 240 h.
For series [12], the system named is Mus musculus. Description: Toxicity in Mus musculus albino (mouse) assessed as serum SGOT level at 300 mg/kg, po for 10 days (reference value: 9.74 +/- 1.73 U/l). It is filed as organism-based. The arrangement: dose 300 mg/kg, route oral. Particulars: in vivo, 240 h.
Series [13] has as its system Mus musculus. Kind of series: Toxicity in Mus musculus albino (mouse) assessed as brownish eye mucus at 80 to 375 mg/kg, ip. The format is organism-based. Particulars: in vivo. The arrangement: dose 80-375 mg/kg, route intraperitoneal.
In series [14] the test system is Mus musculus. Description: Anti-inflammatory activity in Mus musculus albino (mouse) assessed as inhibition of formalin-induced paw swelling at 30 mg/kg, po administered 30 min prior formalin challenge measured after 30 min post challenge (reference value: 9.46 +/- 0.035 mm/min). It is filed as functional.
Series [15] has as its system Mus musculus. Description: Toxicity in Mus musculus albino (mouse) assessed as bluish toe at 80 to 375 mg/kg, ip. It is filed as organism-based. The arrangement: dose 80-375 mg/kg, route intraperitoneal. Particulars: in vivo.
For series [16], the system named is Mus musculus. Description: Anti-inflammatory activity in Mus musculus albino (mouse) assessed as inhibition of formalin-induced paw swelling at 30 mg/kg, po administered 30 min prior formalin challenge measured after 60 min post challenge (reference value: 9.73 +/- 0.06 mm/min). It is filed as functional.
In series [17] the test system is Mus musculus. Description: Toxicity in Mus musculus albino (mouse) assessed as general depression at 80 to 375 mg/kg, ip. It is filed as organism-based. The arrangement: dose 80-375 mg/kg, route intraperitoneal. Particulars: in vivo.
Series [18] has as its system Mus musculus. Kind of series: Anti-inflammatory activity in Mus musculus albino (mouse) assessed as inhibition of formalin-induced paw swelling at 30 mg/kg, po administered 30 min prior formalin challenge measured after 90 min post challenge (reference value: 9.5 +/- 0.04 mm/min). It is filed as functional.
Series [19] deals with Mus musculus. Description: Toxicity in Mus musculus albino (mouse) assessed as SOD activity per gram of Hb at 300 mg/kg, po for 10 days (reference value: 12.7+/- 2.08 U/g Hb). It is filed as organism-based. The arrangement: dose 300 mg/kg, route oral. Conditions: in vivo, 240 h.
The subject of series [20] is Mus musculus. Description: Toxicity in Mus musculus albino (mouse) assessed as serum TBARS level at 300 mg/kg, po for 10 days (reference value: 4.35 +/- 0.86 U/l). The arrangement: dose 300 mg/kg, route oral. Conditions: in vivo, 240 h. It is filed as organism-based.
Series [21] concerns Mus musculus. Description: Toxicity in Mus musculus albino (mouse) assessed as GSH activity at 300 mg/kg, po for 10 days (reference value: 59.57 +/- 5.10 %). Particulars: in vivo, 240 h. Further details: dose 300 mg/kg, route oral. It is filed as organism-based.
The test system of series [22] is Mus musculus. Kind of series: Toxicity in Mus musculus albino (mouse) assessed as serum SGPT level at 600 mg/kg, po for 10 days (reference value: 35.82 +/- 5.26 U/l). It is filed as organism-based. Particulars: in vivo, 240 h. The arrangement: dose 600 mg/kg, route oral.
Series [23] has as its system Mus musculus. Description: Toxicity in Mus musculus albino (mouse) assessed as serum LDH level at 600 mg/kg, po for 10 days (reference value: 217.84 +/- 13.36 U/l). The format is organism-based. Further details: dose 600 mg/kg, route oral. Conditions: in vivo, 240 h.
Series [24] deals with Mus musculus. Kind of series: Toxicity in Mus musculus albino (mouse) assessed as serum gamma-glutamyl transferase level at 600 mg/kg, po for 10 days (reference value: 4.43 +/- 0.31 U/l). It is filed as organism-based. Further details: dose 600 mg/kg, route oral. Conditions: in vivo, 240 h.
The test system of series [25] is Mus musculus. Kind of series: Anti-inflammatory activity in Mus musculus albino (mouse) assessed as inhibition of formalin-induced paw swelling at 60 mg/kg, po administered 30 min prior formalin challenge measured after 30 min post challenge (reference value: 9.46 +/- 0.035 mm/min). The format is functional.
Series [26] deals with Mus musculus. Kind of series: Toxicity in Mus musculus albino (mouse) assessed as serum SGOT level at 600 mg/kg, po for 10 days (reference value: 9.74 +/- 1.73 U/l). It is filed as organism-based. Further details: dose 600 mg/kg, route oral. Conditions: in vivo, 240 h.
For series [27], the system named is Mus musculus. Kind of series: Toxicity in Mus musculus albino (mouse) assessed as GPx activity per gram of Hb at 600 mg/kg, po for 10 days (Rvb =179.16 +/- 10.45 U/g Hb). The format is organism-based. The arrangement: dose 600 mg/kg, route oral. Conditions: in vivo, 240 h.
Series [28] deals with Mus musculus. Description: Toxicity in Mus musculus albino (mouse) assessed as serum ALP level at 600 mg/kg, po for 10 days (reference value: 31.63 +/- 3.73 U/l). The format is organism-based. The arrangement: dose 600 mg/kg, route oral. Conditions: in vivo, 240 h.
The test system of series [29] is Mus musculus. Description: Anti-inflammatory activity in Mus musculus albino (mouse) assessed as inhibition of formalin-induced paw swelling at 60 mg/kg, po administered 30 min prior formalin challenge measured after 60 min post challenge (reference value: 9.73 +/- 0.06 mm/min). The format is functional.
The test system of series [30] is Mus musculus. Kind of series: Toxicity in Mus musculus albino (mouse) assessed as serum TBARS level at 600 mg/kg, po for 10 days (reference value: 4.35 +/- 0.86 U/l). Particulars: in vivo, 240 h. The format is organism-based. Further details: dose 600 mg/kg, route oral.
For series [31], the system named is Mus musculus. Description: Toxicity in Mus musculus albino (mouse) assessed as SOD activity per gram of Hb at 600 mg/kg, po for 10 days (reference value: 12.7 +/- 2.08 U/g Hb). The format is organism-based. Further details: dose 600 mg/kg, route oral. Conditions: in vivo, 240 h.
Series [32] concerns Mus musculus. Kind of series: Toxicity in Mus musculus albino (mouse) assessed as GSH activity at 600 mg/kg, po for 10 days (reference value: 59.57 +/- 5.10 %). It is filed as organism-based. Further details: dose 600 mg/kg, route oral. Particulars: in vivo, 240 h.
Series [33] relates to Mus musculus. Description: Anti-inflammatory activity in Mus musculus albino (mouse) assessed as inhibition of formalin-induced paw swelling at 60 mg/kg, po administered 30 min prior formalin challenge measured after 90 min post challenge (reference value: 9.5 +/- 0.04 mm/min). It is filed as functional.
The test system of series [34] is Mus musculus. Description: Anti-inflammatory activity in Mus musculus albino (mouse) assessed as inhibition of formalin-induced paw swelling at 60 mg/kg, po administered 30 min prior formalin challenge measured after 120 min post challenge (reference value: 9.83 +/- 0.071 mm/min). It is filed as functional.

Take `COc1ccccc1/C=N/n1c(Nc2ccc(S(N)(=O)=O)cc2)nc2ccccc2c1=O`: the Activity result in the series on Mus musculus [1] is “Toxic”; in the series on Mus musculus [2] it was 30.01 U/L; in the series with Mus musculus [3], “Toxic”; in the series on Mus musculus [4] it was 222.25 millimeter/min; with Mus musculus [5], “Toxic”; with Mus musculus [6] it was 4.12 U/L. Further, the Activity in the series with Mus musculus [7] is 205.65 U/L; with Mus musculus [8], 183 U/g Hb; with Mus musculus [9], “Toxic”; in the series with Mus musculus [10] it was 6.5 millimeter/min; in the series on Mus musculus [11], 33.65 U/L; in the series on Mus musculus [12], 10.7 U/L. The Activity entry with Mus musculus [13] is “Toxic”; in the series on Mus musculus [14], 7.76 millimeter/min; in the series on Mus musculus [15] it was “Toxic”; with Mus musculus [16], 7.78 millimeter/min; with Mus musculus [17], “Toxic”; in the series with Mus musculus [18] it was 7.19 millimeter/min. In addition, the Activity worked out at 13.1 U/g Hb with Mus musculus [19], 3.97 nmol/mL in the series on Mus musculus [20] and 61.45% with Mus musculus [21].

For `COc1ccc2c(c1)c(CC(=O)O)c(C)n2C(=O)c1ccc(Cl)cc1` [INDOMETHACIN], the Activity turned out to be 65.37 U/L with Mus musculus [22]; 326.8 U/L in the series on Mus musculus [23]; 9.45 U/L in the series with Mus musculus [24]; 6.5 millimeter/min in the series on Mus musculus [25]; 24.51 U/L in the series with Mus musculus [26]; 134 U/g Hb in the series on Mus musculus [27]. The Activity was 76.41 U/L in the series with Mus musculus [28]; 7.19 millimeter/min in the series on Mus musculus [29]; 7.45 nmol/mL in the series on Mus musculus [30]; 7.45 U/g Hb with Mus musculus [31]; 45.32% in the series with Mus musculus [32]; 7.2 millimeter/min in the series on Mus musculus [33]. Also, the Activity with Mus musculus [34] amounted to 6.98 millimeter/min.
